According to paper PMC8729770, “In Vitro Evaluation of Antimicrobial Peptides from the Black Soldier Fly (Hermetia Illucens) against a Selection of Human Pathogens” (Microbiology Spectrum, 2022):
Converted amounts (≈) assume the structure as drawn. Like-named read-outs stand apart in the source and are kept apart here. Ends that are not written are not given here. Peptide text beside a SMILES is read from it.

What was measured:
[1] = tested on: E. coli ATCC 8739; format: cell-based, Escherichia coli; details: for MIC E. coli ATCC 8739: determined visually, 16 h
Description: (§1) To detect antimicrobial activity of the BSF AMPs, the peptide library underwent screening against a panel of microorganisms, consisting of S. aureus ATCC 6538, E. coli ATCC 8739, P. aeruginosa ATCC 9027, C. albicans B59630, and A. fumigatus B42928. Serial dilutions of the peptides were prepared from the DMSO stock solutions in sterile demineralized water in 96-well plates using an automated liquid-handling workstation (Beckman Coulter Biomek 3000) in end volumes of 10 μL. The final in-plate concentration of DMSO was <1%. Peptide concentrations ranged from 64 μM to 0.25 μM for the first evaluation, and from 32 μM to 0.016 μM for the independent repeat. As references, doxycycline (Sigma-Aldrich; S. aureus, E. coli, P. aeruginosa), flucytosine (Sigma-Aldrich; C. albicans), and econazole (Sigma-Aldrich; A. fumigatus) were used. Suspensions of a starting inoculum of 5 × 10^3 CFU/mL (E. coli, S. aureus, C. albicans, A. fumigatus) and 5 × 10^4 CFU/mL (P. aeruginosa) were prepared in MHB (bacterial species) or RPMI medium (fungal species) and 190 μL was added to the 96-well plates. Plates were incubated for 16 h (E. coli, S. aureus, P. aeruginosa), 24 h (C. albicans), or 48 h (A. fumigatus) at 37°C. After incubation, read-out of the antimicrobial activity was performed using a resazurin assay. Then, 20 μL of a 0.01% (wt/vol) resazurin (Sigma-Aldrich) solution was added to each well and plates were incubated for 15 min (S. aureus), 30 min (E. coli), 45 min (P. aeruginosa), 4 h (C. albicans), or 17 h (A. fumigatus) to allow resazurin reduction to take place. Fluorescence was read using a microplate reader (Telix) at λexcitation = 550 nm and λemission = 590. […] MIC values were determined visually. Medium in the wells with no visual growth was plated on MHA to detect the MBC, defined as ≥3 log reduction compared with the growth control.

[2] = tested on: S. aureus ATCC 6538; format: cell-based, Staphylococcus aureus; details: for MIC S. aureus ATCC 6538: determined visually, 16 h; for MBC S. aureus ATCC 6538: wells without visual growth plated on MHA, ≥3 log reduction vs growth control
Description: as §1

[3] = tested on: P. aeruginosa ATCC 9027; format: cell-based, Pseudomonas aeruginosa
Description: as §1

[4] = repeat 1, 64-0.25 μM, determined visually, 16 h
[5] = repeat 2, 32-0.016 μM, determined visually, 16 h
[6] = repeat 1, plated on MHA, ≥3 log reduction vs growth control
[7] = repeat 2, plated on MHA, ≥3 log reduction vs growth control

| Molecule | MIC E. coli ATCC 8739 ([1]; repeat 1, 64-0.25 μM) [µM] | MIC E. coli ATCC 8739 ([1]; repeat 2, 32-0.016 μM) [µM] | MIC S. aureus ATCC 6538 ([2]; repeat 1, 64-0.25 μM) [µM] | MBC S. aureus ATCC 6538 ([2]; repeat 1) | MIC S. aureus ATCC 6538 ([2]; repeat 2, 32-0.016 μM) [µM] | MBC S. aureus ATCC 6538 ([2]; repeat 2) | MIC P. aeruginosa ATCC 9027 [3, 4] [µM] | MIC P. aeruginosa ATCC 9027 [3, 5] [µM] | bactericidal or bacteriostatic mechanism ([2]; MBC determination) | MIC P. aeruginosa ATCC 9027 ([3]; ATCC 9027, 16 h) [µM] | MBC P. aeruginosa ATCC 9027 [3, 6] | MBC P. aeruginosa ATCC 9027 [3, 7] [µM] | MBC E. coli ATCC 8739 ([1]; ATCC 8739, 16 h) [µM] | MBC P. aeruginosa ATCC 9027 ([3]; ATCC 9027, 16 h) [µM] |
| --- | --- | --- | --- | --- | --- | --- | --- | --- | --- | --- | --- | --- | --- | --- |
| CC[C@H](C)[C@H](NC(=O)[C@H](CS)NC(=O)[C@H](Cc1c[nH]cn1)NC(=O)[C@H](C)NC(=O)[C@H](C)NC(=O)[C@H](CS)NC(=O)[C@H](C)NC(=O)[C@H](C)NC(=O)[C@H](Cc1c[nH]cn1)NC(=O)CNC(=O)[C@@H](NC(=O)[C@H](CCCCN)NC(=O)[C@H](Cc1ccccc1)NC(=O)[C@@H]1CCCN1C(=O)[C@H](CO)NC(=O)[C@H](CC(C)C)NC(=O)[C@H](CC(C)C)NC(=O)[C@H](CC(=O)O)NC(=O)[C@H](CS)NC(=O)[C@@H](NC(=O)[C@H](C)N)[C@@H](C)O)C(C)C)C(=O)N[C@@H](C)C(=O)N[C@@H](CCCNC(=N)N)C(=O)NCC(=O)N[C@@H](CCCCN)C(=O)N[C@@H](CCCNC(=N)N)C(=O)NCC(=O)NCC(=O)N[C@@H](Cc1c[nH]c2ccccc12)C(=O)N[C@@H](CS)C(=O)N[C@@H](CC(=O)O)C(=O)N[C@@H](CCCCN)C(=O)N[C@@H](CCCNC(=N)N)C(=O)N[C@@H](C)C(=O)N[C@H](C(=O)N[C@@H](CS)C(=O)N[C@@H](CC(N)=O)C(=O)N[C@@H](CS)C(=O)N[C@@H](CCCNC(=N)N)C(=O)N[C@@H](CCCCN)C(=O)O)C(C)C [Hill-Def2a] (H-ATCDLLSPFKVGHAACAAHCIARGKRGGWCDKRAVCNCRK-OH; N-terminus and C-terminus assumed) | > 64.00 | > 32.00 | 0.25 (≈ 1.07 µg/mL) | static | 2.00 (≈ 8.55 µg/mL) | static | > 64.00 | > 32.00 | – | – | – | – | – | – |
| CC[C@H](C)[C@H](NC(=O)[C@H](CS)NC(=O)[C@H](Cc1c[nH]cn1)NC(=O)[C@H](CC(C)C)NC(=O)[C@H](C)NC(=O)[C@H](CS)NC(=O)[C@H](C)NC(=O)[C@H](C)NC(=O)[C@H](Cc1c[nH]cn1)NC(=O)CNC(=O)[C@@H](NC(=O)[C@H](CCCCN)NC(=O)[C@H](Cc1ccccc1)NC(=O)[C@@H]1CCCN1C(=O)[C@H](CO)NC(=O)[C@H](CC(C)C)NC(=O)[C@H](CC(C)C)NC(=O)[C@H](CC(=O)O)NC(=O)[C@H](CS)NC(=O)[C@@H](NC(=O)[C@H](C)N)[C@@H](C)O)C(C)C)C(=O)N[C@@H](C)C(=O)N[C@@H](CC(C)C)C(=O)NCC(=O)N[C@@H](CCCNC(=N)N)C(=O)N[C@@H](CCCNC(=N)N)C(=O)NCC(=O)NCC(=O)N[C@@H](Cc1c[nH]c2ccccc12)C(=O)N[C@@H](CS)C(=O)N[C@@H](CC(=O)O)C(=O)NCC(=O)N[C@@H](CCCNC(=N)N)C(=O)N[C@@H](C)C(=O)N[C@H](C(=O)N[C@@H](CS)C(=O)N[C@@H](CC(N)=O)C(=O)N[C@@H](CS)C(=O)N[C@@H](CCCNC(=N)N)C(=O)N[C@@H](CCCNC(=N)N)C(=O)O)C(C)C [Hill-Def4] (H-ATCDLLSPFKVGHAACALHCIALGRRGGWCDGRAVCNCRR-OH; N-terminus and C-terminus assumed) | > 64.00 | > 32.00 | 1.00 (≈ 4.26 µg/mL) | static | 8.00 (≈ 34.1 µg/mL) | static | > 64.00 | > 32.00 | bacteriostatic | – | – | – | – | – |
| GWWKRVFKPVEKLGQRVRDAGIQGLEIAQQGANVLATVRGGPPQQ-NH2 [Hill-Cec9] | – | – | > 64.00 | – | > 32.00 | – | – | 2.00 | – | 1.00 | static | 2.00 | – | – |
| KSWWKKVFKPVERAGQRIRDASIKGLAVAQQGANVLSTIRGGPPVVAPPPQV-NH2 [Hill-Cec13] | – | – | > 64.00 | – | > 32.00 | – | – | 2.00 | – | 1.00 | 64.00 µM | 2.00 | – | – |
| SWFKKVFKPVEKVGQRVRDAGIQGVAIAQQGANVLATARGGPPH-NH2 [Hill-Cec5] | – | – | – | – | – | – | – | – | – | – | – | – | 0.50 | 32.00 |
